Laboratory results: US11345912B2, “Directed evolution of multivalent glycopeptides that tightly bind to target proteins” (Brandeis University, priority 2013, dated 2022)

System: 2G12
Assay: Binding curve and KD determination of 2G12-glycopeptide interaction (radiolabeled glycopeptide, protein G magnetic bead capture, scintillation counting)
Experimental: The resulting mRNAs were purified by denaturing PAGE or MEGAclear kit (Ambion), and 1 μM RNA was used in PURE system translation (reaction volume of translation varied). Typically, 25 μL of translated reaction was diluted with 100 μL of binding buffer (50 mM Tris-HCl, pH 7.8, 300 mM NaCl, 5 mM β-mercaptoethanol) and 25 μL of Ni-NTA agarose suspension (Qiagen), and tumbled at room temperature for 1 h. The resins were transferred to 0.22 μm spin-filter rinsing with 100 μL of bind buffer, and washed with 3×200 μL of bind buffer and 2×200 μL of wash buffer (50 mM Tris-HCl, pH 7.8, 5 mM β-mercaptoethanol). The bound peptides were eluted with 2×25 μL of 0.1% TFA. The eluted peptides were analyzed by MALDI-TOF MS, using α-Cyano-4-hydroxycinnamic acid matrix (Sigma), with or without desalting with ZipTip C18 resin (Millipore). For calibration of MALDI-TOF-MS, at least two of the following standards, bovine insulin, E. coli thioredoxin and/or horse apomyoglobin were used. To quantitate peptide yields, the radioactivities were measured by liquid scintillation counting. For the click reaction, the translated and purified peptides were mixed with 0.1% (v/v) Triton X-100, and then dialyzed against H2O containing 0.1% (v/v) Triton X-100 using Slide-A-Lyzer MINI Dialysis Devices, 3.5K MWCO (Thermo Scientific) overnight to desalt. After dialysis, the peptides were divided into two portions: one was glycosylated via the click reaction, while the other was saved as a non-glycosylated peptide control. […] The glycosylated peptide (<4 pmol) was incubated with 100 nM 2G12 in selection buffer (40 μL) at room temp. The solution was then tumbled 30 min with 0.12 mg of equilibrated Dynabeads Protein G to capture 2G12-glycopeptide complex. Beads were then washed with 3×40 μL of selection buffer and resuspended in 10 μL of selection buffer. The resuspended beads were heated at 70° C. for 30 min to denature 2G12 and elute glycopeptides, chilled on ice for 5 min, and tumbled at room temperature for 10 min. The magnetically isolated supernatant was recovered and the beads were rinsed with 10 μL of selection buffer.
Then, the solution was added to 0.12 mg of pre-equilibrated Dynabeads Protein G and tumbled at room temperature for 30 min. The supernatant was removed and the beads were washed with 3×40 μL of selection buffer. The radioactivities of the supernatant and wash solutions were measured by liquid scintillation counting as unbound fractions. […] The beads were resuspended in 40 μL of selection buffer, heated at 70° C. for 30 min to elute the bound glycopeptides, chilled on ice for 5 min, and tumbled at room temperature for 10 min. The supernatant was removed, and the beads were washed with 40 μL of selection buffer and resuspended in 40 μL of selection buffer. The radioactivities of these solutions and suspensions were measured by liquid scintillation counting separately and the values were combined as apparent bound fractions. […] All experiments were done at least in triplicate. KDs were calculated as described in the footnote of Table 4 (below).

Structure (SMILES): CC[C@H](C)[C@H](NC(=O)[C@H](CCCNC(=N)N)NC(=O)[C@@H]1CCCN1C(=O)[C@H](CC(=O)O)NC(=O)[C@H](CCC(=O)O)NC(=O)[C@@H](NC(=O)[C@H](C)NC(=O)[C@H](Cc1ccc(O)cc1)NC(=O)[C@H](CCC(N)=O)NC(=O)[C@H](CCc1cn(C2CCC(OC3O[C@H](CO[C@H]4O[C@H](CO[C@H]5O[C@H](CO)[C@@H](O)[C@H](O)[C@@H]5O[C@H]5O[C@H](CO)[C@@H](O)[C@H](O)[C@@H]5O)[C@@H](O)[C@H](O[C@H]5O[C@H](CO)[C@@H](O)[C@H](O)[C@@H]5O[C@H]5O[C@H](CO)[C@@H](O)[C@H](O)[C@@H]5O)[C@@H]4O)[C@@H](O)[C@H](O[C@H]4O[C@H](CO)[C@@H](O)[C@H](O)[C@@H]4O[C@H]4O[C@H](CO)[C@@H](O)[C@H](O)[C@@H]4O[C@H]4O[C@H](CO)[C@@H](O)[C@H](O)[C@@H]4O)[C@@H]3O)CC2)nn1)NC(=O)[C@H](CCCNC(=N)N)NC(=O)[C@H](Cc1ccc(O)cc1)NC(=O)[C@H](CCC(=O)O)NC(=O)[C@H](CC(C)C)NC(=O)[C@H](CO)NC(=O)[C@H](CC(N)=O)NC(=O)[C@H](CC(C)C)NC(=O)[C@@H](NC(=O)[C@H](CO)NC(=O)[C@H](CCCNC(=N)N)NC(=O)[C@H](CCc1cn(C2CCC(OC3O[C@H](CO[C@H]4O[C@H](CO[C@H]5O[C@H](CO)[C@@H](O)[C@H](O)[C@@H]5O[C@H]5O[C@H](CO)[C@@H](O)[C@H](O)[C@@H]5O)[C@@H](O)[C@H](O[C@H]5O[C@H](CO)[C@@H](O)[C@H](O)[C@@H]5O[C@H]5O[C@H](CO)[C@@H](O)[C@H](O)[C@@H]5O)[C@@H]4O)[C@@H](O)[C@H](O[C@H]4O[C@H](CO)[C@@H](O)[C@H](O)[C@@H]4O[C@H]4O[C@H](CO)[C@@H](O)[C@H](O)[C@@H]4O[C@H]4O[C@H](CO)[C@@H](O)[C@H](O)[C@@H]4O)[C@@H]3O)CC2)nn1)NC=O)[C@@H](C)O)[C@@H](C)O)C(=O)N[C@@H](CCCNC(=N)N)C(=O)N[C@@H](CCc1cn(C2CCC(OC3O[C@H](CO[C@H]4O[C@H](CO[C@H]5O[C@H](CO)[C@@H](O)[C@H](O)[C@@H]5O[C@H]5O[C@H](CO)[C@@H](O)[C@H](O)[C@@H]5O)[C@@H](O)[C@H](O[C@H]5O[C@H](CO)[C@@H](O)[C@H](O)[C@@H]5O[C@H]5O[C@H](CO)[C@@H](O)[C@H](O)[C@@H]5O)[C@@H]4O)[C@@H](O)[C@H](O[C@H]4O[C@H](CO)[C@@H](O)[C@H](O)[C@@H]4O[C@H]4O[C@H](CO)[C@@H](O)[C@H](O)[C@@H]4O[C@H]4O[C@H](CO)[C@@H](O)[C@H](O)[C@@H]4O)[C@@H]3O)CC2)nn1)C(=O)N[C@@H](C)C(=O)N[C@@H](CO)C(=O)N[C@H](C(=O)N1CCC[C@H]1C(=O)N[C@@H](Cc1ccc(O)cc1)C(=O)N[C@H](C(=O)N[C@@H](Cc1ccc(O)cc1)C(=O)N[C@@H](Cc1c[nH]c2ccccc12)C(=O)N[C@@H](Cc1c[nH]c2ccccc12)C(=O)N1CCC[C@H]1C(=O)NCC(=O)N[C@@H](CO)C(=O)NCC(=O)N[C@@H](CO)C(=O)N[C@@H](CC(C)C)C(=O)NCC(=O)N[C@@H](Cc1c[nH]cn1)C(=O)N[C@@H](Cc1c[nH]cn1)C(=O)N[C@@H](Cc1c[nH]cn1)C(=O)N[C@@H](Cc1c[nH]cn1)C(=O)N[C@@H](Cc1c[nH]cn1)C(=O)N[C@@H](Cc1c[nH]cn1)C(=O)N[C@@H](CCCNC(=N)N)C(=O)N[C@@H](CC(=O)O)C(=O)N[C@@H](Cc1ccc(O)cc1)C(=O)N[C@@H](CCCCN)C(=O)N[C@@H](CC(=O)O)C(=O)N[C@@H](CC(=O)O)C(=O)N[C@@H](CC(=O)O)C(=O)N[C@@H](CC(=O)O)C(=O)N[C@@H](CCCCN)C(=O)O)[C@@H](C)O)[C@@H](C)CC (stereo partly shown) [Clone 10F9, XRSTLNSLEYRXQYATEDPRIRXASIPYTYWWP]
- Fmax [%] (Table 4, maximal fraction bound from curve fit, error = standard error of fit): 86 ± 1.2%
- Kd (Table 4, ribosomally translated radiolabeled glycopeptide with His6/FLAG tag, room temperature, fit Fbound=(Fmax[2G12])/(KD+[2G12]), error = standard error of fit): 3.1 ± 0.17 nM

Structure (SMILES): CC[C@H](C)[C@H](NC(=O)[C@H](CCCNC(=N)N)NC(=O)[C@H](CCCNC(=N)N)NC(=O)CNC(=O)[C@H](CC(=O)O)NC(=O)[C@H](CC(N)=O)NC(=O)[C@H](CC(C)C)NC(=O)[C@@H](NC(=O)[C@H](CCc1cn(C2CCC(OC3O[C@H](CO[C@H]4O[C@H](CO[C@H]5O[C@H](CO)[C@@H](O)[C@H](O)[C@@H]5O[C@H]5O[C@H](CO)[C@@H](O)[C@H](O)[C@@H]5O)[C@@H](O)[C@H](O[C@H]5O[C@H](CO)[C@@H](O)[C@H](O)[C@@H]5O[C@H]5O[C@H](CO)[C@@H](O)[C@H](O)[C@@H]5O)[C@@H]4O)[C@@H](O)[C@H](O[C@H]4O[C@H](CO)[C@@H](O)[C@H](O)[C@@H]4O[C@H]4O[C@H](CO)[C@@H](O)[C@H](O)[C@@H]4O[C@H]4O[C@H](CO)[C@@H](O)[C@H](O)[C@@H]4O)[C@@H]3O)CC2)nn1)NC=O)C(C)C)C(=O)N[C@H](C(=O)N[C@@H](CCC(N)=O)C(=O)N[C@@H](CCc1cn(C2CCC(OC3O[C@H](CO[C@H]4O[C@H](CO[C@H]5O[C@H](CO)[C@@H](O)[C@H](O)[C@@H]5O[C@H]5O[C@H](CO)[C@@H](O)[C@H](O)[C@@H]5O)[C@@H](O)[C@H](O[C@H]5O[C@H](CO)[C@@H](O)[C@H](O)[C@@H]5O[C@H]5O[C@H](CO)[C@@H](O)[C@H](O)[C@@H]5O)[C@@H]4O)[C@@H](O)[C@H](O[C@H]4O[C@H](CO)[C@@H](O)[C@H](O)[C@@H]4O[C@H]4O[C@H](CO)[C@@H](O)[C@H](O)[C@@H]4O[C@H]4O[C@H](CO)[C@@H](O)[C@H](O)[C@@H]4O)[C@@H]3O)CC2)nn1)C(=O)N[C@@H](CO)C(=O)N[C@@H](CS)C(=O)N[C@@H](CCC(=O)O)C(=O)N[C@@H](CC(C)C)C(=O)N1CCC[C@H]1C(=O)N[C@@H](CCc1cn(C2CCC(OC3O[C@H](CO[C@H]4O[C@H](CO[C@H]5O[C@H](CO)[C@@H](O)[C@H](O)[C@@H]5O[C@H]5O[C@H](CO)[C@@H](O)[C@H](O)[C@@H]5O)[C@@H](O)[C@H](O[C@H]5O[C@H](CO)[C@@H](O)[C@H](O)[C@@H]5O[C@H]5O[C@H](CO)[C@@H](O)[C@H](O)[C@@H]5O)[C@@H]4O)[C@@H](O)[C@H](O[C@H]4O[C@H](CO)[C@@H](O)[C@H](O)[C@@H]4O[C@H]4O[C@H](CO)[C@@H](O)[C@H](O)[C@@H]4O[C@H]4O[C@H](CO)[C@@H](O)[C@H](O)[C@@H]4O)[C@@H]3O)CC2)nn1)C(=O)N[C@H](C(=O)N[C@@H](CCCNC(=N)N)C(=O)N[C@@H](CCCNC(=N)N)C(=O)N[C@@H](CO)C(=O)NCC(=O)N[C@@H](CO)C(=O)NCC(=O)N[C@@H](CO)C(=O)N[C@@H](CC(C)C)C(=O)NCC(=O)N[C@@H](Cc1c[nH]cn1)C(=O)N[C@@H](Cc1c[nH]cn1)C(=O)N[C@@H](Cc1c[nH]cn1)C(=O)N[C@@H](Cc1c[nH]cn1)C(=O)N[C@@H](Cc1c[nH]cn1)C(=O)N[C@@H](Cc1c[nH]cn1)C(=O)N[C@@H](CCCNC(=N)N)C(=O)N[C@@H](CC(=O)O)C(=O)N[C@@H](Cc1ccc(O)cc1)C(=O)N[C@@H](CCCCN)C(=O)N[C@@H](CC(=O)O)C(=O)N[C@@H](CC(=O)O)C(=O)N[C@@H](CC(=O)O)C(=O)N[C@@H](CC(=O)O)C(=O)N[C@@H](CCCCN)C(=O)O)C(C)C)C(C)C (stereo partly shown) [Clone 10F5-Δ11, XVLNDGRRIVQXSCELPXVRRS]
- Fmax [%] (Table 6 mutational analysis, radioactive bead binding assay): 17%
- Kd (Table 6 mutational analysis, radioactive bead binding assay, ribosomally translated): > 200 nM
